The values that follow come from ChEMBL document CHEMBL2203038, “Isolation and synthesis of two antiproliferative calamenene-type sesquiterpenoids from Sterculia tavia from the Madagascar rain forest” (Bioorg Med Chem, 2012).

The assay deals with A2780. The experiment in a line: Antiproliferative activity against human A2780 cells after 2 days by alamar blue assay. The format is functional, cell-based. The note with it: A2780, 48 h. In general terms: The colour change of resazurin is a common sign of viable cells or microbes.
On to `COc1cc2c(cc1C)C(C(C)C)CC=C2C` (stereo unspecified), for which the half-inhibitory concentration (IC50) was > 50 µM. The same measure for `COc1cc2c(cc1C)C(C(C)C)CC(O)[C@]2(C)O` (stereo partly specified): > 50 µM. The same measure for `COc1cc2c(cc1C)C(C(C)C)CC(=O)[C@]2(C)O` (stereo partly specified): 33.9 µM. Regarding `COc1cc2c(cc1C)C(C(C)C)=CC(O)[C@]2(C)O` (stereo partly specified), half-maximal inhibition (IC50) was put at 22.1 µM. The same measure for `COc1cc2c(cc1C)C(O)(C(C)C)C(O)C(O)[C@]2(C)O` (mixture of isomers): 35.5 µM. The same measure for `COc1cc2c(cc1C)[C@](O)(C(C)C)C(=O)C(=O)[C@]2(C)O` (stereo in doubt): 5.5 µM; for `COc1cc2c(cc1C)[C@@](O)(C(C)C)C(=O)C(=O)[C@@]2(C)O` (stereo in doubt): 5.9 µM; for `COc1cc2c(cc1C)[C@](O)(C(C)C)C(=O)C(=O)[C@@]2(C)O` (stereo in doubt): 6.7 µM. The same measure for `COc1cc2c(cc1C)[C@@](O)(C(C)C)C(=O)C(=O)[C@]2(C)O` (stereo in doubt): 6.3 µM; for `COc1cc2c(cc1C)C(C(C)C)=CC(=O)[C@]2(C)O` [LACINILENE C METHYL ETHER]: 4 µM; for `CC1=Cc2c(c(C)cc(O)c2C(C)C)C(=O)C1=O` [MANSONONE G]: 10.2 µM.

The term IC50 denotes the point on the concentration scale where inhibition reaches its midpoint. Higher therefore signals weaker potency.
